Data taken from patent US20240034758A1, “NOVEL PEPTIDE AND USE THEREOF” (MEDI & GENE, priority 2020, published 2024).

Test system: mHypoE-N41 hypothalamic cells
Assay: Expression of appetite-promoting genes in hypothalamic cells
Type: cell-based
Conditions: 100 nM, 24 hours; vs PBS control
Description: Furthermore, to confirm the appetite-regulating effect of the functional peptide in mHypoE-N41 hypothalamic cells, the hypothalamic cells were treated with PBS (control) and 100 nM mouse-derived functional peptide (experimental group) for 24 hours.

Row | Substance | decrease of Agrp gene level compared to the control [%] | decrease of NPY gene level compared to the control [%]
1 | human-derived functional peptide: Human IF1-derived peptide, SEQ ID NO: 2: GSDQSENVDRGAGSIREAGGAFGKREQAEEERYFRAQSREQLAALKK (listed as Homo sapiens) | 47.5 | 59.6
2 | mouse-derived functional peptide: Mouse IF1-derived peptide, SEQ ID NO: 1: VSDSSDSMDTGAGSIREAGGAFGKREKAEEDRYFREKTKEQLAALRK (listed as Mus musculus) | 50.2 | 48.8
